Results on 18 compounds are retold here after patent US20250312499A1, “KISSPEPTIN RECEPTOR (KISS1R) TARGETED THERAPEUTICS AND USES THEREOF” (priority 2024, published 2025).

The target in this assay is human kisspeptin receptor (Homo sapiens (Human), UniProt Q969F8). In words: Human KISS1R binding assay (membrane competition binding). To be noted: 90 min at room temperature; competition with 0.2 nM [125I]-metastin (45-54); Flp-In T-Rex 293 kisspeptin membranes; metal complexes nonradioactive Ga, In, Lu; read-out: hKiSSR Binding Ki (90 min). A digest of the protocol: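 Membranes from tetracycline-induced (48 h) Flp-In T-Rex 293 cells expressing receptor, 5–10 μg, incubated 90 min at room temperature with 0.2 nM [125I]-metastin (45-54) and competitor (typically 0–10,000 nM) in Tris/Mg/Ca/EGTA/0.1% BSA, pH 7.4. Filtration, washing, counting; Ki by non-linear regression.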
Chain of human kisspeptin receptor (Q969F8 whole entry): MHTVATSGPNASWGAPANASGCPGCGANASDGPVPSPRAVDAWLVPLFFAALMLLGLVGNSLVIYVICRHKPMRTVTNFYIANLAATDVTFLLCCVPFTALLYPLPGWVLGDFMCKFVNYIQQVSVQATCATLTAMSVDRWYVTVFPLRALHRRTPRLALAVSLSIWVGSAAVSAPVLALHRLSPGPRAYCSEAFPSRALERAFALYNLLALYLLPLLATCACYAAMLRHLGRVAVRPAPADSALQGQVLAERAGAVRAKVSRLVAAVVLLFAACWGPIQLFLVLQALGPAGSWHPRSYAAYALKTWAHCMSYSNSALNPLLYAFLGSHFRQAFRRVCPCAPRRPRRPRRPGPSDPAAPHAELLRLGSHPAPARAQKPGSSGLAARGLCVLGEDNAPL

Square brackets hold non-standard residues; d marks the D form. Peptide text beside a SMILES is read from it. * marks the point of attachment. DOTA = O=C(O)CN1CCN(CC(=O)O)CCN(CC(=O)*)CCN(CC(=O)O)CC1; Gly(N-(3-F-4-Me-benzyl)) = Cc1ccc(CNCC(=O)*)cc1F; Butanoyl(4-(4-I-phenyl)) = O=C(CCCc1ccc(I)cc1)*; Gly(N-3-F-4-Me-benzyl) = Cc1ccc(CNCC(=O)O)cc1F; Api(1-amidino) = N=C(N)N1CCC(N)(C(=O)O)CC1; Hydrocinnamoyl(4-Me) = Cc1ccc(CCC(=O)*)cc1; Bip = N[C@@H](Cc1ccc(-c2ccccc2)cc1)C(=O)O; Hydrocinnamoyl(4-I) = O=C(CCc1ccc(I)cc1)*; HO(CH2CH2O)2CH2CH2CO = O=C(CCOCCOCCO)*; d2Nal = N[C@H](Cc1ccc2ccccc2c1)C(=O)O; Cha = N[C@@H](CC1CCCCC1)C(=O)O; X5 = O=C(CNCc1ccc2ccccc2c1)*; Api = NC1(C(=O)O)CCNCC1; X13 = O=C(CNCC1CCSCC1)*; PEG2 = NCCOCCOCCC(=O)O; Ahx = NCCCCCC(=O)O; azaGly = NNC(=O)O; Sar = CNCC(=O)O

`CC(C)C[C@H](NC(=O)NNC(=O)[C@H](Cc1ccccc1)NC(=O)[C@@H](NC(=O)[C@H](CC(N)=O)NC(=O)[C@@H](Cc1ccc2ccccc2c1)NC(=O)[C@@H](Cc1ccc(O)cc1)NC(=O)CCCCCNC(=O)CN1CCN(CC(=O)O)CCN(CC(=O)O)CCN(CC(=O)O)CC1)[C@@H](C)O)C(=O)NC1(C(=O)N[C@H](Cc2c[nH]c3ccccc23)C(N)=O)CCN(C(=O)CNCC2CCSCC2)CC1` [Compound 375] ({DOTA-Ahx}-[dY][d2Nal]NTF[azaGly]L[Api](X13)[dW]-NH2): the Ki was > 100 nM.

On to `CC(C)C[C@H](NC(=O)NNC(=O)[C@H](Cc1ccccc1)NC(=O)[C@@H](NC(=O)[C@H](CC(N)=O)NC(=O)[C@@H](Cc1ccc2ccccc2c1)NC(=O)[C@@H](Cc1ccc(O)cc1)NC(=O)CCCCCNC(=O)CN1CCN(CC(=O)O)CCN(CC(=O)O)CCN(CC(=O)O)CC1)[C@@H](C)O)C(=O)NC1(C(=O)N[C@H](Cc2c[nH]c3ccccc23)C(N)=O)CCN(C(=O)CNCc2ccc3ccccc3c2)CC1` [Compound 376] ({DOTA-Ahx}-[dY][d2Nal]NTF[azaGly]L[Api](X5)[dW]-NH2), for which the Ki lay within 10 to 100 nM.

As for `Cc1ccc(CNCC(=O)N2CCC(NC(=O)[C@H](CC(C)C)NC(=O)NNC(=O)[C@H](Cc3ccccc3)NC(=O)[C@@H](NC(=O)[C@H](CC(N)=O)NC(=O)[C@H](CCCCNC(=O)CN3CCN(CC(=O)O)CCN(CC(=O)O)CCN(CC(=O)O)CC3)NC(=O)[C@@H](Cc3ccc(O)cc3)NC(=O)CCOCCOCCO)[C@@H](C)O)(C(=O)N[C@@H](Cc3c[nH]c4ccccc34)C(N)=O)CC2)cc1F` [Compound 379] ({HO(CH2CH2O)2CH2CH2CO}-[dY]K(DOTA)NTF[azaGly]L[Api](Gly(N-(3-F-4-Me-benzyl)))W-NH2), the Ki is < 10 nM.

For `CC(=O)N[C@H](Cc1ccc(O)cc1)C(=O)N[C@@H](CCCCNC(=O)CN1CCN(CC(=O)O)CCN(CC(=O)O)CCN(CC(=O)O)CC1)C(=O)N[C@@H](CC(N)=O)C(=O)N[C@H](C(=O)N[C@@H](Cc1ccccc1)C(=O)NNC(=O)N[C@@H](CC(C)C)C(=O)NC1(C(=O)N[C@@H](Cc2c[nH]c3ccccc23)C(N)=O)CCN(C(=O)CNCc2ccc(C)c(F)c2)CC1)[C@@H](C)O` [Compound 380] (Ac-[dY]K(DOTA)NTF[azaGly]L[Api](Gly(N-(3-F-4-Me-benzyl)))W-NH2), the inhibitory constant (Ki) is < 10 nM.

As to `Cc1ccc(CNCC(=O)N2CCC(NC(=O)[C@H](CC(C)C)NC(=O)NNC(=O)[C@H](Cc3ccccc3)NC(=O)[C@@H](NC(=O)[C@H](CC(N)=O)NC(=O)[C@@H](Cc3c[nH]c4ccccc34)NC(=O)[C@@H](Cc3ccc(O)cc3)NC(=O)CCOCCOCCNC(=O)CN3CCN(CC(=O)O)CCN(CC(=O)O)CCN(CC(=O)O)CC3)[C@@H](C)O)(C(=O)N[C@@H](Cc3c[nH]c4ccccc34)C(N)=O)CC2)cc1F` [Compound 382] ({DOTA-PEG2}-[dY][dW]NTF[azaGly]L[Api](Gly(N-(3-F-4-Me-benzyl)))W-NH2), the Ki was < 10 nM.

In the case of `Cc1ccc(CNCC(=O)N2CCC(NC(=O)[C@H](CC(C)C)NC(=O)NNC(=O)[C@H](Cc3ccccc3)NC(=O)[C@@H](NC(=O)[C@H](CC(N)=O)NC(=O)[C@@H](Cc3c[nH]c4ccccc34)NC(=O)[C@@H](Cc3ccc(O)cc3)NC(=O)CCCCCNC(=O)CN3CCN(CC(=O)O)CCN(CC(=O)O)CCN(CC(=O)O)CC3)[C@@H](C)O)(C(=O)N[C@H](Cc3c[nH]c4ccccc34)C(N)=O)CC2)cc1F` [Compound 383] ({DOTA-Ahx}-[dY][dW]NTF[azaGly]L[Api](Gly(N-(3-F-4-Me-benzyl)))[dW]-NH2), the Ki was < 10 nM.

Turning to `CNCC(=O)N1CCC(NC(=O)[C@H](CC(C)C)NC(=O)NNC(=O)[C@H](Cc2ccccc2)NC(=O)[C@@H](NC(=O)[C@H](CC(N)=O)NC(=O)[C@H](CCCCNC(=O)CN2CCN(CC(=O)O)CCN(CC(=O)O)CCN(CC(=O)O)CC2)NC(=O)[C@@H](Cc2ccc(O)cc2)NC(=O)CCOCCOCCNC(=O)CNCc2ccc(C)c(F)c2)[C@@H](C)O)(C(=O)N[C@@H](Cc2c[nH]c3ccccc23)C(N)=O)CC1` [Compound 384] (H-[Gly(N-3-F-4-Me-benzyl)][PEG2][dY]K(DOTA)NTF[azaGly]L[Api](Sar)W-NH2), the Ki was < 10 nM.

On to `CNCC(=O)N1CCC(NC(=O)[C@H](CC(C)C)NC(=O)NNC(=O)[C@H](Cc2ccccc2)NC(=O)[C@@H](NC(=O)[C@H](CC(N)=O)NC(=O)[C@H](CCCCNC(=O)CN2CCN(CC(=O)O)CCN(CC(=O)O)CCN(CC(=O)O)CC2)NC(=O)[C@@H](Cc2ccc(O)cc2)NC(=O)CNCc2ccc(C)c(F)c2)[C@@H](C)O)(C(=O)N[C@@H](Cc2c[nH]c3ccccc23)C(N)=O)CC1` [Compound 386] (H-[Gly(N-3-F-4-Me-benzyl)][dY]K(DOTA)NTF[azaGly]L[Api](Sar)W-NH2), for which the Ki was < 10 nM.

As to `CNCC(=O)N1CCC(NC(=O)[C@H](CC(C)C)NC(=O)NNC(=O)[C@H](CC2CCCCC2)NC(=O)[C@@H](NC(=O)[C@H](CC(N)=O)NC(=O)[C@H](CCCCNC(=O)CN2CCN(CC(=O)O)CCN(CC(=O)O)CCN(CC(=O)O)CC2)NC(=O)[C@@H](Cc2ccc(O)cc2)NC(=O)CCOCCOCCNC(=O)CCc2ccc(C)cc2)[C@@H](C)O)(C(=O)N[C@@H](Cc2c[nH]c3ccccc23)C(N)=O)CC1` [Compound 387] ({Hydrocinnamoyl(4-Me)-PEG2}-[dY]K(DOTA)NT[Cha][azaGly]L[Api](Sar)W-NH2), the Ki is < 10 nM.

With `CNCC(=O)N1CCC(NC(=O)[C@H](CC(C)C)NC(=O)NNC(=O)[C@H](Cc2ccccc2)NC(=O)[C@@H](NC(=O)[C@H](CC(N)=O)NC(=O)[C@H](Cc2ccc(-c3ccccc3)cc2)NC(=O)[C@@H](Cc2ccc(O)cc2)NC(=O)CCCCCNC(=O)CN2CCN(CC(=O)O)CCN(CC(=O)O)CCN(CC(=O)O)CC2)[C@@H](C)O)(C(=O)N[C@H](Cc2c[nH]c3ccccc23)C(N)=O)CC1` [Compound 389] ({DOTA-Ahx}-[dY][Bip]NTF[azaGly]L[Api](Sar)[dW]-NH2), the Ki was < 10 nM.

For `CC(=O)N[C@H](Cc1ccc(O)cc1)C(=O)N[C@H](Cc1c[nH]c2ccccc12)C(=O)N[C@@H](CC(N)=O)C(=O)N[C@H](C(=O)N[C@@H](Cc1ccccc1)C(=O)NNC(=O)N[C@@H](CC(C)C)C(=O)NC1(C(=O)N[C@@H](Cc2c[nH]c3ccccc23)C(N)=O)CCN(C(=O)CNCc2ccc(C)c(F)c2)CC1)[C@@H](C)O` [Compound 390] (Ac-[dY][dW]NTF[azaGly]L[Api](Gly(N-(3-F-4-Me-benzyl)))W-NH2), the Ki is < 10 nM.

With `CC(=O)N[C@H](Cc1ccc(O)cc1)C(=O)N[C@H](Cc1c[nH]c2ccccc12)C(=O)N[C@@H](CC(N)=O)C(=O)N[C@H](C(=O)N[C@@H](CC1CCCCC1)C(=O)NNC(=O)N[C@@H](CC(C)C)C(=O)NC1(C(=O)N[C@@H](Cc2c[nH]c3ccccc23)C(N)=O)CCN(C(=O)CNCc2ccc(C)c(F)c2)CC1)[C@@H](C)O` [Compound 391] (Ac-[dY][dW]NT[Cha][azaGly]L[Api](Gly(N-(3-F-4-Me-benzyl)))W-NH2), the Ki is < 10 nM.

As for `CC(=O)N[C@@H](Cc1ccccc1)C(=O)NNC(=O)N[C@@H](CC(C)C)C(=O)NC1(C(=O)N[C@@H](Cc2c[nH]c3ccccc23)C(N)=O)CCN(C(=O)CNCc2ccc(C)c(F)c2)CC1` [Compound 392] (Ac-F[azaGly]L[Api](Gly(N-(3-F-4-Me-benzyl)))W-NH2), the Ki is < 10 nM.

Consider `CNCC(=O)N1CCC(NC(=O)[C@H](CC(C)C)NC(=O)NNC(=O)[C@H](Cc2ccccc2)NC(=O)[C@@H](NC(=O)[C@H](CC(N)=O)NC(=O)[C@@H](Cc2ccc3ccccc3c2)NC(=O)[C@@H](Cc2ccc(O)cc2)NC(C)=O)[C@@H](C)O)(C(=O)N[C@@H](Cc2c[nH]c3ccccc23)C(N)=O)CC1` [Compound 393] (Ac-[dY][d2Nal]NTF[azaGly]L[Api](Sar)W-NH2), for which the Ki was < 10 nM.

In the case of `CC(C)C[C@H](NC(=O)NNC(=O)[C@H](Cc1ccccc1)NC(=O)[C@@H](NC(=O)[C@H](CC(N)=O)NC(=O)[C@@H](Cc1ccc2ccccc2c1)NC(=O)[C@@H](Cc1ccc(O)cc1)NC(=O)CCOCCOCCNC(=O)CCc1ccc(I)cc1)[C@@H](C)O)C(=O)NC1(C(=O)N[C@@H](Cc2c[nH]c3ccccc23)C(N)=O)CCN(C(=N)N)CC1` [Compound 394] ({Hydrocinnamoyl(4-I)-PEG2}-[dY][d2Nal]NTF[azaGly]L[Api(1-amidino)]W-NH2), the inhibitory constant (Ki) is < 10 nM.

As for `CNCC(=O)N1CCC(NC(=O)[C@H](CC(C)C)NC(=O)NNC(=O)[C@H](Cc2ccccc2)NC(=O)[C@@H](NC(=O)[C@H](CC(N)=O)NC(=O)[C@@H](Cc2ccc3ccccc3c2)NC(=O)[C@@H](Cc2ccc(O)cc2)NC(=O)CCCc2ccc(I)cc2)[C@@H](C)O)(C(=O)N[C@@H](Cc2c[nH]c3ccccc23)C(N)=O)CC1` [Compound 395] ({Butanoyl(4-(4-I-phenyl))}-[dY][d2Nal]NTF[azaGly]L[Api](Sar)W-NH2), the Ki was < 10 nM.

On to `CC(C)C[C@H](NC(=O)NNC(=O)[C@H](Cc1ccccc1)NC(=O)[C@@H](NC(=O)[C@H](CC(N)=O)NC(=O)[C@@H](Cc1ccc2ccccc2c1)NC(=O)[C@@H](Cc1ccc(O)cc1)NC(=O)CCOCCOCCNC(=O)CCc1ccc(I)cc1)[C@@H](C)O)C(=O)NC1(C(=O)N[C@@H](Cc2ccccc2)C(N)=O)CCN(C(=N)N)CC1` [Compound 396] ({Hydrocinnamoyl(4-I)-PEG2}-[dY][d2Nal]NTF[azaGly]L[Api(1-amidino)]F-NH2), for which the Ki was < 10 nM.

In the case of `CC(C)C[C@H](NC(=O)NNC(=O)[C@H](Cc1ccccc1)NC(=O)[C@@H](NC(=O)[C@H](CC(N)=O)NC(=O)[C@@H](Cc1ccc2ccccc2c1)NC(=O)[C@@H](Cc1ccc(O)cc1)NC(=O)CCOCCOCCNC(=O)CCc1ccc(I)cc1)[C@@H](C)O)C(=O)NC1(C(=O)N[C@@H](Cc2ccc(O)cc2)C(N)=O)CCN(C(=N)N)CC1` [Compound 397] ({Hydrocinnamoyl(4-I)-PEG2}-[dY][d2Nal]NTF[azaGly]L[Api(1-amidino)]Y-NH2), the Ki is < 10 nM.
